The results in this text go back to US20180094248A1, “Necroptosis Signaling as a Therapeutic Target for Alzheimer's Disease” (Arizona Board of Regents on behalf of Arizona State …, priority 2016, published 2018).

For assay [1], the system named is primary cortical neurons from wild type littermate mice. As to the kind of experiment: NeuN count of wild type primary cortical neurons treated with Nec-1S or vehicle. The class given is cell-based, mouse. The settings on record: 10 μM at DIV 7 and DIV 11. The procedure:
(§1) To probe for a direct link between necroptosis and neuronal loss in AD, we plated primary cortical neurons from APP/PS1 and wild type littermate mice. After seven days in vitro (DIV), neurons were treated with 10 μM of the necroptosis inhibitor 7-Cl-O-necrostatin (Nec15) or vehicle. Treatment was repeated at DIV 11. We then fixed neurons at DIV 11 and 15, and stained them for NeuN to count total number of neurons. […] To determine changes in necroptosis, we isolated proteins from neurons of the same four groups and measured the levels of total and phosphorylated MLKL by western blot.
(§2) Primary neuronal cultures—For the GFP experiments: Primary neurons were isolated from APP/PS1 and NonTg Po pups. The tissue was then dissociated in Neurobasal media (Thermo Fisher Scientific) and spun down for 3 minutes at 5,000 g at 4° C. The supernatant was discarded and the pellet was re-suspended in 1 ml of Neurobasal media supplemented with B27 (Thermo Fisher Scientific). […] Neurons were treated for a total of 15 days and the GFP fluorescence was measured every 4 days. […] All fluorescent measurements (excitation 488 nm, emission 509 nm) were performed using the Synergy HT multi-mode microplate reader with the Gen5 software (BioTek, Winooski, Vt.). The reader was pre-heated to 37° C. to maintain optimal conditions for the neurons during the measurements. […]

Assay [2] concerns primary cortical neurons from APP/PS1 mice. As to the kind of experiment: NeuN count of APP/PS1 primary cortical neurons treated with Nec-1S or vehicle. The class given is cell-based, mouse. The procedure: as §1, §2
The subject of assay [3] is primary cortical neurons isolated from APP/PS1 and wild type mice. Briefly: GFP fluorescence in live AAV-GFP infected primary cortical neurons treated with Nec1S or vehicle. The class given is cell-based, mouse. The conditions noted are these: DIV 15; 10 μM at DIV 7 and 11; APP/PS1-veh vs the other three groups incl. APP/PS1-Nec1S. Here is the method: At DIV 1, we infected primary cortical neurons isolated from APP/PS1 and wild type mice with an adeno-associated virus (AAV) expressing the green fluorescent protein (GFP) under the neuronal promotor CamKII. At DIV 7 and 11, neurons from the two genotypes were treated with 10 μM Nec1S or vehicle. We then measured GFP fluorescence in live cells as an indication of live neurons.
as §2, with “Scientific). An equal volume per each sample was seeded into a Poly-D-Lysine-coated (10 mg/mL, Sigma-Aldrich) black 96-well tissue culture plate.” for “Scientific).”

Assay [4] deals with 5xFAD mice. As to the kind of experiment: Fluoro-Jade staining of brain sections of 5xFAD mice treated with Nec-1S in vivo. The conditions noted are these: 8-month-old 5xFAD mice; 10 mg/kg i.p. once, then 0.5 mg/ml in drinking water for 21 days; vs vehicle. Also noted: species or system mouse. The procedure: Specifically, mice receive a single intraperitoneal injection of 10 mg/kg Nec1s after which they were given Nec1S in their drinking water at a concentration of 0.5 mg/ml for 21 days.
Immunohistochemistry: Coronal sections from hippocampus and temporal gyms of control (CTL) and Alzheimer's disease (AD) cases were pre-mounted on coated slides and washed in TBS. After blocking in TBSB (TBS, 2% BSA, and 0.1% Triton X), tissue was incubated overnight at 4° C. with the following primary antibodies: RIPK1 (1:200, BD Transduction Laboratories, catalog number 610459), MLKL (1:200, Novus Biologicals, catalog number NBP1-56729), RIPK3 (1:200, RD Systems catalog number MAB7604), pMLKL Ser358/Thr357 (1:200, Abcam, catalog number ab187091), pMLKL (1:200, SAB Signalway Antibody, catalog number 12837), NeuN (1:200, Cell Signaling, catalog number 024307P), Ibal (1:200, Wako, catalog number 09-19741), GFAP (1:200, Cell Signaling, catalog number 3670S), Caspase 3 (1:200, Millipore, catalog number AB3623), phospho-tau pSer202/Thr205 (ATB, 1:200, Thermo Fisher Scientific, catalog number MN1020), and pan-Cadherin (1:200, Abcam, catalog number ab6528 and ab6529). CP13 was a kind gift from Dr. Peter Davies. […]

On to `CN1C(=O)NC(Cc2c[nH]c3c(Cl)cccc23)C1=O` (centres unmarked) [Nec1S, 5-((7-chloro-1 H-indol-3-yl)methyl)-3-methylimidazolidine-2,4-dione], for which the “decrease in the number of wild type neurons” value in assay [1] is on record as “did not significantly affect the decrease in the number of wild type neurons”. Moreover, the “number of NeuN-positive neurons” value in assay [2] (DIV 15, 10 μM at DIV 7 and DIV 11, APP/PS1-Nec1S vs APP/PS1-veh and WT groups) is “more neurons than the APP/PS1-veh group, and as many neurons as both WT groups”. Further, the “in vitro cell death of APP/PS1 primary cortical neurons” value in assay [2] (overall conclusion of the two independent experiments (NeuN and GFP), 10 μM) is “reduces the accelerated in vitro cell death of APP/PS1 primary cortical neurons”. Also, in assay [3], the “GFP fluorescence in live cells (indication of live neurons)” value was “APP/PS1-veh group had lower GFP levels compared to the other three groups”. Moreover, in assay [4], the Fluoro-Jade-positive neurons result is listed as “fewer Fluoro-Jade-positive neurons compared to vehicle-treated 5xFAD mice”.
